Test results: US20030013660A1, “Dioxolane analogs for improved inter-cellular delivery” (Shire BioChem Inc., priority 2000, published 2003)
Several values for one entry are separate records, joined by “and”; a condition that tells them apart may be missing. Equal entries are not always repeated.

Assays:
H-460 [1] = test: MTT assay at 72 hr (24 hr drug exposure, wash, 48 hr); format: cell-based
Experimental: (§1) Exposition of 24hr to drug, washed, and incubated for another 48hr (total of 72hr assay)

MCF-7 [2] = test: as above; format: cell-based
Experimental: as §1

SF-268 [3] = test: as above; format: cell-based
Experimental: as §1

CEM/dCK- [4] = test: MTT or WST-1 assay at 72 hr (24 hr drug exposure, wash, 48 hr); format: cell-based
Experimental: as §1

CCRF-CEM [5] = test: as above; format: cell-based
Experimental: as §1

CEM/dCK- [6] = test: 3H-TdR (3H-thymidine) incorporation assay at 72 hr; format: cell-based
Experimental: (§2) Table of IC50 Values (μM) for Controls
(§3) Exposition of 24 hr to drug, wash, incubated for another 48 hr (total of 72 hr assay)
(§4) (3H-Thymidine Incorporation Assay)

CCRF-CEM [7] = test: 3H-TdR (3H-thymidine) incorporation assay at 72 hr; format: cell-based
Experimental: as §2, §3, §4

H-460 [8] = test: 3H-TdR (3H-thymidine) incorporation assay at 72 hr; format: cell-based, Human; settings: Homo sapiens
MCF-7 [9] = test: 3H-TdR (3H-thymidine) incorporation assay at 72 hr; format: cell-based, Human; settings: Homo sapiens
SF-268 [10] = test: 3H-TdR (3H-thymidine) incorporation assay at 72 hr; format: cell-based, Human
CEM/dCK- [11] = test: 3H-TdR incorporation at 72 hr (24 hr drug exposure, wash, 48 hr); format: cell-based
Experimental: as §3, §4

CCRF-CEM [12] = test: as above; format: cell-based; settings: Homo sapiens, CCRF-CEM, read-out: IC50 in μM (3H-TdR incorporation at 72 hr) CCRF-CEM 24 h, CCRF-CEM T-cell Leukemia, 72 hr assay
Experimental: as §3, §4

H-460 [13] = test: as above; format: cell-based, Human; settings: Homo sapiens, NCI-H460, read-out: IC50 in μM (3H-TdR incorporation at 72 hr) H-460 24 h, H-460 Human Lung Carcinoma, 72 hr assay
Experimental: as §3, §4

MCF-7 [14] = test: as above; format: cell-based, Human; settings: Homo sapiens, MCF7, read-out: IC50 in μM (3H-TdR incorporation at 72 hr) MCF-7 24 h, MCF-7 Human Breast Carcinoma, 72 hr assay
Experimental: as §3, §4

SF-268 [15] = test: as above; format: cell-based, Human; settings: Homo sapiens, SF-268, read-out: IC50 in μM (3H-TdR incorporation at 72 hr) SF-268 24 h, SF-268 Human Central Nervous System Tumor; 24 h drug exposure, 72 hr assay
Experimental: as §3, §4

[16] = Homo sapiens, NCI-H460, read-out: IC50 H-460 24 h, MTT at 72 hr, 24 h exposure, single experiment
[17] = Homo sapiens, MCF7, read-out: IC50 MCF-7 24 h, MTT at 72 hr, 24 h exposure, single experiment
[18] = Homo sapiens, SF-268, read-out: IC50 SF-268 24 h, MTT at 72 hr, 24 h exposure, single experiment
[19] = CEM/dCK- versus CCRF-CEM, single experiment
[20] = read-out: IC50 CEM/dCK- 24 h, MMT or WST-1 at 72 hr, 24 h exposure, single experiment
[21] = Homo sapiens, CCRF-CEM, read-out: IC50 CCRF-CEM 24 h, MMT or WST-1 at 72 hr, 24 h exposure, single experiment
[22] = read-out: IC50 CCRF-CEM 24 h, MMT or WST-1 at 72 hr, 24 h exposure, single experiment

Which IC50 (H-460 [1]; [16]) does the source give for `CC(C)C(C(=O)OC[C@H]1OC[C@@H](n2ccc(N)nc2=O)O1)c1ccccc1` (mixture of isomers) [Compound 262, 3-METHYL-2-PHENYL- BUTYRIC ACID 4-(4- AMINO-2-OXO-2H- PYRIMIDIN-1-YL)- [1,3]DIOXOLAN-2- YLMETHYL ESTER] here?
The IC50 was 900 nM.

What about the IC50 (MCF-7 [2]; [17]) of the same compound?
The IC50 was 16000 nM.

What about the IC50 (SF-268 [3]; [18]) of the same compound?
Its IC50 is over 100000 nM.

What about the “Resistance Factor*” value (CEM/dCK- [4]; [19]) of the same compound?
The value was over 114.

And the IC50 (CEM/dCK- [4]; [20])?
Its IC50 is over 100000 nM.

And the IC50 (CCRF-CEM [5]; [21])?
Its IC50 is 880 nM.

How did the IC50 (H-460 [1]; [16]) turn out when `CCCCC(C)(C)C(=O)OC[C@H]1OC[C@@H](n2ccc(N)nc2=O)O1.Cl` (stereo in doubt) [Compound 107, 2,2-DIMETHYLHEXANOIC ACID 4-(4-AMINO-2-OXO- 2H-PYRIMIDIN-1-YL)-1,3- DIOXOLAN-2-YLMETHYL ESTER HYDROCHLORIDE] was run?
Its IC50 is 270 nM.

And the IC50 (MCF-7 [2]; [17])?
The IC50 was 250 nM.

And the IC50 (SF-268 [3]; [18])?
The IC50 was 3400 nM.

What about the “Resistance Factor*” value (CEM/dCK- [4]; [19]) of the same compound?
Its value is 2.042.

And the IC50 (CEM/dCK- [4]; [20])?
Its IC50 is 49000 nM.

What about the IC50 (CCRF-CEM [5]; [21]) of the same compound?
Its IC50 is 24 nM.

Which results are given for `Nc1ccn([C@@H]2CO[C@H](CO)O2)c(=O)n1` [BCH-4556]?
IC50 (H-460 [1]; Homo sapiens, NCI-H460, read-out: IC50 H-460 24 h, Average, MTT at 72 hr, Average of the experiments): 1600 ± 1600 nM; IC50 (H-460 [1]; read-out: IC50 H-460 24 h, MTT at 72 hr, 24 h exposure, single experiment): 780 nM; IC50 (MCF-7 [2]; Homo sapiens, MCF7, read-out: IC50 MCF-7 24 h, Average, MTT at 72 hr, Average of the experiments): 2000 ± 2400 nM; IC50 (SF-268 [3]; Homo sapiens, SF-268, read-out: IC50 SF-268 24 h, Average, MTT at 72 hr, Average of the experiments): 29000 ± 23000 nM; IC50 (SF-268 [3]; read-out: IC50 SF-268 24 h, MTT at 72 hr, 24 h exposure, single experiment): 16000 nM; IC50 (CEM/dCK- [6]; 24 h, read-out: IC50 CEM/dCK- 24 h, Average, Average ± spread of the repeat determinations, 24 h exposure): > 100000 nM; Factor* (Resistance Factor), Average (CEM/dCK- [6]; Average ± spread of the ratios dCK- on wild-type CCRF-CEM): 1792 ± 1584; IC50 (CEM/dCK- [6]; Homo sapiens, CCRF-CEM, read-out: IC50 CEM/dCK- 24 h, 24 h drug exposure, wash, another 48 hr, deoxycytidine kinase-deficient CCRF-CEM): > 100000 nM; IC50 (CEM/dCK- [6]; read-out: IC50 CEM/dCK- 24 h, 24 h drug exposure, wash, another 48 hr, deoxycytidine kinase-deficient CCRF-CEM): 56000 nM; IC50 (CCRF-CEM [7]; Homo sapiens, CCRF-CEM, 24 h, read-out: IC50 CCRF-CEM 24 h, Average, Average ± spread of the repeat determinations, 24 h exposure): 78 nM; IC50 (CCRF-CEM [7]; read-out: IC50 CCRF-CEM 24 h, 24 h drug exposure, wash, another 48 hr, 3H-TdR incorporation at 72 hr): 100 nM; IC50 (H-460 [8]; NCI-H460, 24 h, read-out: IC50 H-460 24 h, Average, Average ± spread of the repeat determinations, 24 h exposure): 120 nM; IC50 (H-460 [8]; NCI-H460, read-out: IC50 H-460 (72 h), 72 h exposure, 3H-TdR incorporation at 72 hr): 40 nM; IC50 (MCF-7 [9]; MCF7, 24 h, read-out: IC50 MCF-7 24 h, Average, Average ± spread of the repeat determinations, 24 h exposure): 180 nM; IC50 (MCF-7 [9]; MCF7, read-out: IC50 MCF-7 (72 h), 72 h exposure, 3H-TdR incorporation at 72 hr): 66 nM; IC50 (SF-268 [10]; Homo sapiens, SF-268, 24 h, read-out: IC50 SF-268 24 h, Average, Average ± spread of the repeat determinations, 24 h exposure): 440 nM; IC50 (SF-268 [10]; Homo sapiens, SF-268, read-out: IC50 SF-268 (72 h), 72 h exposure, 3H-TdR incorporation at 72 hr): 96 nM; IC50 (SF-268 [10]; read-out: IC50 SF-268 24 h, 24 h drug exposure, wash, another 48 hr, 3H-TdR incorporation at 72 hr): 330 nM and 660 nM; Resistance Factor*, Average (CEM/dCK- [4]; CEM/dCK- versus CCRF-CEM, Average of the experiments): 349 ± 283; IC50 (CEM/dCK- [4]; read-out: IC50 CEM/dCK- 24 h, Average, MMT or WST-1 at 72 hr, Average of the experiments): > 100000 nM; IC50 (CCRF-CEM [5]; Homo sapiens, CCRF-CEM, read-out: IC50 CCRF-CEM 24 h, Average, MMT or WST-1 at 72 hr, Average of the experiments): 380 ± 280 nM; IC50 (CCRF-CEM [5]; [22]): 210 nM and 140 nM

For `COc1ccc(C(OC[C@H]2OC[C@@H](n3ccc(N)nc3=O)O2)(c2ccc(OC)cc2)c2ccc(OC)cc2)cc1` [Compound 185, 4-AMINO-1-{2-[TRIS-(4- METHOXY-PHENYL)- METHOXYMETHYL]- [1,3]DIOXOLAN-4-YL}-1H- PYRIMIDIN-2-ONE], which IC50 (MCF-7 [2]; [17]) is on record?
The IC50 was 1400 nM.

What about the IC50 (MCF-7 [2]; read-out: IC50 MCF-7 24 h, MTT at 72 hr, 24 h exposure, single experiment) of the same compound?
Its IC50 is 2300 nM.

What about the IC50 (CEM/dCK- [11]; Homo sapiens, CCRF-CEM, read-out: IC50 in μM (3H-TdR incorporation at 72 hr) CEM/dCK- 24 h, CCRF-CEM deoxycytidine kinase-deficient, 24 h drug exposure, 72 hr assay) of the same compound?
Its IC50 is 17 µM.

What about the “Factor* (Resistance Factor = Ratio of dCK- on Wild-type CCRF-CEM)” value (CEM/dCK- [11]; ratio of IC50 CEM/dCK- to IC50 CCRF-CEM) of the same compound?
Its value is 258.

What about the IC50 (CCRF-CEM [12]) of the same compound?
The IC50 was 0.066 µM.

What about the “Resistance Factor*” value (CEM/dCK- [4]; [19]) of the same compound?
Its value is 67.

What about the IC50 (CEM/dCK- [4]; read-out: IC50 CEM/dCK- 24 h; MMT or WST-1 at 72 hr, 24 h exposure, single experiment) of the same compound?
Its IC50 is 12000 nM.

What about the IC50 (CCRF-CEM [5]; [22]) of the same compound?
The IC50 was 180 nM.

What about the IC50 (H-460 [13]) of the same compound?
The IC50 was 0.059 µM.

What about the IC50 (MCF-7 [14]) of the same compound?
Its IC50 is 0.064 µM.

What about the IC50 (SF-268 [15]) of the same compound?
Its IC50 is 0.054 µM.
